Results as given in publication PMC9209747 (Neuro-oncology Advances, 2022).
“Also recorded” adds a separate entry of the source.

Experiments:
γH2AX in tumor tissue = test system: γH2AX in tumor tissue; set-up: method as in our preclinical studies; details: treated mice compared to control animals; ref our preclinical studies; cited from earlier work
[1] = test system: adult glioblastoma multiforme (GBM); set-up: method as in ref 3 (Mir et al.); details: combining radiation therapy with adavosertib; ref 3 (Mir et al.); cited from earlier work
[2] = test system: pediatric glioma cell lines including a DIPG derived cell line; set-up: method as in PMID 24305702; details: effect enhanced by radiation; cited from earlier work
[3] = test system: newly diagnosed diffuse intrinsic pontine glioma (DIPG); assay: Clinical activity: objective response by MRI and overall survival; type: in vivo, human
Method: Disease assessments were performed at baseline prior to start of CRT, within 3–4 weeks after completion of CRT, and then every 3 months. Response assessment was determined by changes in size using the maximal 2-dimensional cross-sectional tumor measurements, T × W (product of the longest diameter of the tumor [width (W)] and its longest perpendicular diameter [transverse (T)], using either T1 or T2 weighted images, similar to historical controls.[21],[22] We defined stable disease (SD) as failing to meet criteria for either partial response (PR), complete response (CR) or progressive disease (PD). PD was defined as any appearance of new lesion(s) or an increase of 25% or more in the sum of the product of the perpendicular diameters of the target lesions. PR was defined as a decrease of 50% or more in the sum of the products of the two perpendicular diameters of the target lesion. Two objective determinations of disease status, by MRI, obtained on two consecutive determinations, separated by at least a 4-week time period, were required to determine the patient’s overall best response. Imaging was reviewed centrally for 41 response-evaluable patients.
Progressive disease was based on central imaging review.

[4] = 41 patients evaluable for objective response, with CRT

## C=CCn1c(=O)c2cnc(Nc3ccc(N4CCN(C)CC4)cc3)nc2n1-c1cccc(C(C)(C)O)n1 [adavosertib]
γH2AX in tumor tissue
  γH2AX expression in tumor tissue: increased expression of γH2AX
[1]
  Survival in orthotopic GBM models: significantly improved survival
[2]
  Anti-proliferative effect in clonogenic survival assays: dose-dependent anti-proliferative effects
[3]; [4]
  Progressive disease (PD) as best overall response, number of patients: 8
  Progressive disease (PD) as best overall response, share of patients: 19.5%
  Stable disease (SD) as best overall response, number of patients: 33
  Stable disease (SD) as best overall response, share of patients: 80.5%
[3]; Fisher exact P = .82
  Best response by dose level: no significant difference in best response by dose level
[3]; Kaplan Meier, adavosertib with CRT, all dose levels
  Median overall survival (OS): 11.8 months
[3]; historical cohort ACNS0126 and ACNS0222, log-rank test
  OS compared to historical control: did not differ from historical control; also recorded: no significant difference in median OS; also recorded: not superior
